Reference: US20160193240A1, “Ulmoside-A: Useful For Prevention Or Cure Of Metabolic Diseases” (COUNCIL OF SCIENTIFIC & INDUSTRIAL RESEARCH, priority 2013, published 2016)

Experiments:
[1] = biological target: T1, AdipoR1 (Mus musculus, UniProt Q91VH1); assay: ULMA-AdipoR interaction assay (ULMA beads, C2C12 myotube membrane extracts, western blot); type: binding; conditions: 50 μg membrane extract, 12 hours
T1 construct: C2C12 myotubes (that express both AdipoR1 and AdipoR2) were incubated with 20 μl control or ULMA-beads; endogenous in cells; host or cells: C2C12 myotubes (mouse), plasma membrane extract
T1 sequence (Q91VH1 1-375): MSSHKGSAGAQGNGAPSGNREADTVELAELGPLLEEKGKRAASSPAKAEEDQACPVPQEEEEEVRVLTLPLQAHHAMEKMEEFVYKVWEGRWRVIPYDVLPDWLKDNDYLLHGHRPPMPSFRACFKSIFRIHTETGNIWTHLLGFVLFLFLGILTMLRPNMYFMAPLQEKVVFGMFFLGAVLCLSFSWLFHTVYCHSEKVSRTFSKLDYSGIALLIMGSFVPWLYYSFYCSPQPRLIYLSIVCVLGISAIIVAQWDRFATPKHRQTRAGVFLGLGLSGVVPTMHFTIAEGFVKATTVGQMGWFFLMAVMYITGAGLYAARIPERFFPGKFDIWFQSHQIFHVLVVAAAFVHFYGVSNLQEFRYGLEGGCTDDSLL
Description: (§1) B. ULMA interacts with AdipoRs. 20 μl of ULMA beads or control beads were incubated with 50 μg of plasma membrane extracts (prepared using a membrane protein isolation kit; Biomol; according to manufacturer's instructions) prepared from C2C12 myotubes (that expresses both AdipoR1 and AdipoR2) for 12 h on a rotary wheel set at 10 rpm. The supernatant was removed and an aliquot was stored as flowthrough. The pellet was washed 6 times and then the beads were boiled in Lamelli buffer and resolved by 10% denaturing polyacrylamide gel electrophoresis followed by transfer on nitrocellulose membrane and western blotting with anti AdipoR1 or anti-AdipoR2 antibodies. Data represents one of two independent experiments showing identical pattern.
(§2) To investigate whether this enhancement of PPAR ligand activity by ULMA indeed happens through AdipoRs, physical interaction between ULMA and AdipoRs were assessed. The ULMA was immobilized on agarose beads.
(§3) Preparation of ULMA Specific Affinity Matrix:
(§4) ULMA specific Affinity Matrix and Control Matrix were prepared using following protocol.
(§5) 1. 45 mg and 22.5 mg of epoxy-activated agarose beads (sigma) were weighed and put separately in two 1.5 ml eppendorf tubes. Tubes were labeled as tube-1 and tube-2. 2. The beads were washed 6×, 1 ml each, with double distilled water (DDW). […] At this stage beads were ready for incubation with protein source. […]

[2] = biological target: T2, AdipoR2 (Mus musculus, UniProt Q8BQS5); assay: as above; type: binding; conditions: 50 μg membrane extract, 12 hours
T2 construct: C2C12 myotubes (that express both AdipoR1 and AdipoR2) were incubated with 20 μl control or ULMA-beads; endogenous in cells; host or cells: C2C12 myotubes (mouse), plasma membrane extract
T2 sequence (Q8BQS5 1-386): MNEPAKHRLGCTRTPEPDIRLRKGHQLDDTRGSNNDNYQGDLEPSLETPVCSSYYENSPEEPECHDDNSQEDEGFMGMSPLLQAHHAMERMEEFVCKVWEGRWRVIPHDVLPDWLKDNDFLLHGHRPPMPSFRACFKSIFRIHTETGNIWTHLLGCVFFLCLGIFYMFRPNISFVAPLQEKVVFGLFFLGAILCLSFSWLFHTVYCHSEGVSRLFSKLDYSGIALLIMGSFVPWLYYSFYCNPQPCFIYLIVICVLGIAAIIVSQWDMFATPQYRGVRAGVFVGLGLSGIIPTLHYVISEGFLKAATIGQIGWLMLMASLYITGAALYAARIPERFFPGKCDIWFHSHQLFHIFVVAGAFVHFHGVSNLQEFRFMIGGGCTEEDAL
Description: as §1, §2, §3, §4, §5

O=C1c2c(cc(O)c([C@@H]3O[C@H](CO)[C@@H](O)[C@H](O)[C@H]3O)c2O)O[C@@H](c2ccc(O)c(O)c2)[C@@H]1O [ULMA, (2S,3S)-(+)-3′,4′,5,7-tetrahydroxydihydroflavonol-6-C-β-D-glucopyranoside]
AdipoR1 detection on ULMA beads vs control beads [1]: detected on ULMA beads
AdipoR2 detection on ULMA beads vs control beads [2]: detected on ULMA beads
